# Experimental data taken from EP4663191A1, “USE OF TYROSINE KINASE INHIBITOR” (Qilu Animal Health Products Co., Ltd., priority 2023, dated 2024).
# “And” between values parts separate entries of the source, which are not always exact repeats. Equal entries are not always repeated.
# Tests used:
# [1] = test system: mouse mast cell tumor P815 cells; test: In vivo efficacy in DBA/2 mouse model of subcutaneous homologous transplantation of P815 cells; conditions: for Tumor volume (mm^3): average ±SEM; for TGI: Day 8, vs vehicle control
# From the text: Test sample: the dimaleate of the compound of formula (I) of the present application (content: 99.7%), and Toceranib phosphate (content: 98.2%, commercially available), the concentration and dosage of administration of the test sample prepared in the following implementation are all calculated in terms of free alkali.
# Test animal: the species is mouse; the strain is DBA/2 mouse; the age is 6-8 weeks old, and the weight is 19-24 g; and the gender is female.
# Experimental methods and steps: mouse mast cell tumor P815 cells (ATCC-TIB-64) were adherent and cultured in vitro. The culture conditions were DMEM medium, 10 vol% fetal bovine serum, 1 vol% double antibody, and cultured in a cell incubator at 37 °C with 5% CO2. Conventional digestion treatment and passage were carried out twice a week with trypsin-EDTA. When the cell saturation reached 80-90% and the quantity satisfied the requirements, the cells were collected, counted and inoculated.
# 0.1 mL of PBS containing 5×10^5 P815 cells was subcutaneously inoculated into the subcutaneous area of the right forelimb axilla of each mouse. At day 8 after cell inoculation, when the average tumor volume reached 100 mm^3, group administration was started. The experiment was grouped into a negative control group (without an active ingredient), an administration group, and a positive control group (with the active ingredient Toceranib), with 8 mice in each group. The negative control (vehicle), the dimaleate of the compound of formula (I), and Toceranib phosphate were administered orally once daily for an 8-day administration period. Health status and mortality of animals were monitored every day. Routine examinations included observing the effects of tumor growth and drug treatment on daily behavioral performance of animals, such as behavioral activities, food and water intake (only visually), weight changes (measuring weight twice a week), appearance signs or other abnormal conditions. Table 1. Preparation methods of the test samples
# Table 2. Grouping of experimental animals and administration protocols
# The experimental indicators were to examine whether the tumor growth was inhibited, delayed or cured. The diameter of the tumor was measured with a vernier caliper. The calculation formula for tumor volume was: V = 0.5a × b^2 , [formula] wherein a and b represented the long diameter and the short diameter of the tumor, respectively. The anti-tumor efficacy of the compound was determined by TGI (%). TGI (%) reflects the rate of tumor growth inhibition. Calculation of TGI (%): TGI (%) = [1-(Average tumor volume at the end of administration in a certain treatment group - Average tumor volume at the start of administration in this treatment group) / (Average tumor volume at the end of treatment in the vehicle control group - Average tumor volume at the start of treatment in the vehicle control group)] ×100%.
# [2] = test system: mouse mast cell tumor cells P815 cells (ATCC-TIB-64); test: MTT assay (thiazolyl blue colorimetric assay), inhibition of tumor cell proliferation; assay type: cell-based
# Method: Test sample: the dimaleate of the compound of formula (I) of the present application.
# The inhibition effect of the dimaleate of the compound of formula (I) on the growth of mouse mast cell tumor cells P815 cells (ATCC-TIB-64) was detected by MTT assay (thiazolyl blue colorimetric assay), and IC50 (half inhibitory concentration) was calculated and obtained.
# [3] = Adverse reactions and safety in dogs with mast cell tumors under treatment (VCOG-CTCAE); assay type: in vivo
# Method: (§1) Since May 2021, a total of 14 dogs with mast cell tumors have been collected and enrolled for treatment with a dimaleate of the compound of formula (I). Table 4: Clinical staging criteria for canine cutaneous mast cell tumors
# (§2) The affected dogs with mast cell tumor were administered with the drug of the dimaleate of the compound of formula (I) at a dose of 2.0 mg/kg to 3.25 mg/kg (all doses were calculated based on free base, the same below), orally once every other day. For affected dogs with assessable solid tumors, baseline assessment was performed before the first trial medication. After the administration of the first trial medication, mass measurement and blood routine examination were performed every 2 weeks, and blood biochemical examination and imaging examination were performed every 4 weeks to evaluate the response to tumor treatment until disease progression, intolerable drug withdrawal due to treatment-related side effects, or death of enrolled dogs, and to evaluate the efficacy and safety of the compound of formula (I) in the treatment of a canine mast cell tumor and a breast tumor. The primary observation endpoints: objective response rate (ORR), disease control rate (DCR), progression-free survival (PFS), and overall survival (OS); complete response (CR), partial response (PR), stable disease (SD), and progressive disease (PD).
# (Adverse event assessment criteria refer to VCOG-CTCAE (Veterinary cooperative oncology group-common terminology criteria for adverse events (VCOG-CTCAE) following chemotherapy or biological antineoplastic therapy in dogs and cats v1.1. Vet Comp Oncol. 2016)).
# canine mast cell tumor = test: Anti-tumor effect in dogs with mast cell tumors (clinical cases); assay type: in vivo
# Method: as §1, §2
# [4] = 14 dogs, 2.0 mg/kg to 3.25 mg/kg orally once every other day, n=4
smiles,measurement,setting,value
"Cc1[nH]c(/C=C2\C(=O)Nc3ccc(F)cc32)c(C)c1C(=O)NCCN1CCCC1 [Toceranib, reference compound]",Tumor volume (mm^3),"[1]; Day 0 after administration, 40mg/kg PO QD",100±4 mm^3
same,Tumor volume (mm^3),"[1]; Day 2 after administration, 40mg/kg PO QD",127±6 mm^3
same,Tumor volume (mm^3),"[1]; Day 4 after administration, 40mg/kg PO QD",231±14 mm^3
same,Tumor volume (mm^3),"[1]; Day 6 after administration, 40mg/kg PO QD",299±15 mm^3
same,TGI,"[1]; 40 mg/kg PO QD, p < 0.001",43.38%
same,Tumor volume (mm^3),"[1]; Day 8 after administration, 40mg/kg PO QD, 40 mg/kg",510 mm^3 and 510±38 mm^3
"Cc1[nH]c(/C=C2\C(=O)Nc3ccc(F)cc32)c(C)c1NC(=O)CCN1CCN(C)CC1 [dimaleate of the compound of formula (I), N-(5-((Z)-(5-fluoro-2-carbonylindole-3-ylidene)methyl)-2,4-dimethyl-1H-pyrrol-3-yl)-3-(4-methylpiperazin-1-yl) propanamide]",IC50,[2],474 nM
same,blood in urine (treatment-related clinical adverse reaction),"[3]; 14 dogs, 2.0 mg/kg to 3.25 mg/kg orally once every other day, n=1, occasionally",7.1%
same,vomiting (treatment-related clinical adverse reaction),"[3]; 14 dogs, 2.0 mg/kg to 3.25 mg/kg orally once every other day, n=3",21.4%
same,blood in stool (treatment-related clinical adverse reaction),[3]; [4],28.6%
same,decreased appetite (treatment-related clinical adverse reaction),[3]; [4],28.6%
same,diarrhea (treatment-related clinical adverse reaction),"[3]; 14 dogs, 2.0 mg/kg to 3.25 mg/kg orally once every other day, n=9",64.3%
same,grade 3 or 4 adverse reactions,"[3]; 14 dogs, VCOG-CTCAE v1.1",No grade 3 or 4 adverse reactions were observed
same,blood routine and serum biochemistry,"[3]; Case 2 Tibetan mastiff, 2.84 mg/kg, June 21",no obvious abnormality was seen compared with the baseline
same,adverse effects after administration,"[3]; Case 4 Golden Retriever, stage I, no c-kit mutation, 2.4 mg/kg from January 2",no significant adverse effects were observed
same,adverse reactions after medication,"[3]; Case 4 Golden Retriever, 2.3 mg/kg from April 10 and from June 6",no obvious adverse reactions occurred after medication
same,adverse reactions after taking the medicine,"[3]; Case 4 Golden Retriever, continued at 2.4mg/kg from February 13",symptoms of soft stool and diarrhea occurred
same,blood routine and serum biochemistry,"[3]; Case 4 Golden Retriever, re-examined February 13, April 10, June 6 (August 7: blood routine only)",no obvious abnormalities were found
same,adverse reactions after medication,"[3]; Case 5 Golden Retriever, 2.25 mg/kg from October 15",no obvious adverse reactions occurred after medication
same,adverse reactions during treatment,"[3]; Case 5 Golden Retriever, 2.75 mg/kg, reported at October 15",Thin and watery stools occurred during a period
same,adverse reactions after dosing,"[3]; Case 5 Golden Retriever, 3.25 mg/kg from September 3",soft stools appeared once after dosing
same,adverse reactions after dosing,"[3]; Case 5 Golden Retriever, dosage adjusted to 2.75 mg/kg on September 7",no significant adverse reactions after dosing
same,mass decreased compared with the baseline,"canine mast cell tumor; Case 1 Golden Retriever, 3.07 mg/kg, 14 days (October 17)",12%
same,recurrence of the mass,"canine mast cell tumor; Case 1 Golden Retriever, after excision, 2.63 mg/kg, postoperative days 47, 82, 117 and 145",no recurrence of the mass was seen on the skin
same,survival period,"canine mast cell tumor; Case 1 Golden Retriever, as of March 28, 2022, 66 doses",greater than 176 days
same,total survival period,"canine mast cell tumor; Case 2 Tibetan mastiff, 2.84 mg/kg, died September 18, 2021",117 days
same,mass on the cephalic side of the vulva,"canine mast cell tumor; Case 3 Labrador, 2.42 mg/kg, after 14 days, non-target lesion",significantly reduced
same,survival period,"canine mast cell tumor; Case 3 Labrador, as of April 17, 2022, medication 51 times",greater than 126 days
same,enlargement of the mass on the cephalic side of the vulva,"canine mast cell tumor; Case 3 Labrador, day 42 and day 77 of treatment, non-target lesion",No enlargement
same,survival period,"canine mast cell tumor; Case 4 Golden Retriever, 2.3-2.4 mg/kg, still under therapy",greater than 259 days
same,Nasal ultrasound,"canine mast cell tumor; Case 4 Golden Retriever, re-examined August 7",subcutaneous mass accompanied by invasive changes in adjacent turbinate bone
same,Nasal ultrasound,"canine mast cell tumor; Case 4 Golden Retriever, re-examined June 6",subcutaneous mass is suspected of invading the nasal cavity
same,Tumor volume (mm^3),"[1]; Day 0 after administration, 20mg/kg PO QD",100±4 mm^3
same,Tumor volume (mm^3),"[1]; Day 2 after administration, 20mg/kg PO QD",141±22 mm^3
same,Tumor volume (mm^3),"[1]; Day 4 after administration, 20mg/kg PO QD",244±35 mm^3
same,Tumor volume (mm^3),"[1]; Day 6 after administration, 20mg/kg PO QD",319±55 mm^3
same,TGI,"[1]; 20 mg/kg PO QD, p = 0.003",47.25%
same,Tumor volume (mm^3),"[1]; Day 8 after administration, 20mg/kg PO QD, listed as Compound of formula (I), 20 mg/kg",483 ±93 mm^3
same,Tumor volume (mm^3),"[1]; Day 8 after administration, 20mg/kg PO QD, listed as compound of formula (I), 20 mg/kg",483 mm^3
